Laboratory results as given in US11318118B1, “Methods and compositions for treating SARS-CoV-2 infection using carboxyamidotriazole orotate” (TACTICAL THERAPEUTICS INC., priority 2021, dated 2022).
Where two headings read alike, the source gives them in different places.

How the values were obtained:
SARS-CoV-2 = assay type: cell-based; settings: Vero E6 cells
SARS-CoV-2 infection = assay type: in vivo; settings: one patient, CTO 600 mg daily oral, on the second day
plasma cytokines = experiment: Luminex (Milliplex MAP Human Cytokine/Chemokine Magnetic Bead Panel) testing of plasma specimens from Phase I cancer patients given CTO; assay type: in vivo; parameters: key to VEGF plasma level / IL-15 plasma level / IL-17A plasma level / IL-1RA plasma level / IL-2 plasma level / IL-4 plasma level / IL-6 plasma level / IL-8 plasma level / IP-10 plasma level / MIP1a plasma level / RANTES plasma level / EGF plasma level / **IL-1β plasma level (second entry of the list) / **TNFα plasma level / GM-CSF plasma level / IFNγ plasma level / IL-1β plasma level (first entry of the list) / IL-12p40 plasma level / IL-12p70 plasma level / IL-13 plasma level: + increased; − decreased
Procedure: In a Phase I trial of CTO testing the safety and tolerability of CTO in cancer patients, Plasa samples were obtained from three patients after administration of different doses of CTO daily as follows: 1) NSCLC Patient 002-46 (CTO 555 mg/m2), 2) NSCLC Patient 002-50 (CTO 427 mg/m2) and 3) Ovarian Cancer Patient 002-53 (CTO 427 mg/m2) The levels of cytokines were measured by using the HCYTMAG-60K-PX30/Milliplex MAP Human Cytokine/Chemokine Magnetic Bead Panel from Milliplex, USA.
Table 1. Target Cytokines in Luminex Panel Testing of Plasma Specimens-Results
Expressed as Cytokine (+ increased) or (− decreased)

[1] = system: non-infected Vero E6 cells; settings: read-out: EC 50 in non-infected Vero E6 cells; cell viability, Cell Titer Glo
[2] = CTO 427-555 mg/m2 daily, three cancer patients, versus baseline
[3] = CTO doses ranging from 427 mg/m2 to 555 mg/m2

Structure (SMILES): NC(=O)c1nnn(Cc2cc(Cl)c(C(=O)c3ccc(Cl)cc3)c(Cl)c2)c1N.O=C(O)c1cc(=O)[nH]c(=O)[nH]1 [CTO]
- IC50 (SARS-CoV-2; 72 hours post-inoculation, read-out: IC50, CPE assay (highest dose tested)): > 20 µM
- replication of SARS-CoV-2 (SARS-CoV-2; CTO up to 5 μM): inhibited
- IC50 (SARS-CoV-2; FIG. 2, read-out: IC50, cytopathic effect (CPE) for SARS-CoV-2): > 20 µM
- Maximum % Inhibition, CPE for SARS-CoV-2 (SARS-CoV-2; recorded <20 μM concentration): 29.03%
- symptoms of SARS-CoV-2 infection (SARS-CoV-2 infection): great improvement in most of the symptoms
- body weight (SARS-CoV-2 infection; had lost twelve pounds within 14 days before): remained at constant weight
- **IL-1β plasma level (second entry of the list) (plasma cytokines; [2]): −
- **TNFα plasma level (plasma cytokines; [2]): −
- EGF plasma level (plasma cytokines; [2]): +
- GM-CSF plasma level (plasma cytokines; [2]): −
- IFNα2 plasma level (plasma cytokines; [2]): —I—
- IFNγ plasma level (plasma cytokines; [2]): −
- IL-1RA plasma level (plasma cytokines; [2]): −
- IL-1β plasma level (first entry of the list) (plasma cytokines; [2]): +
- IL-2 plasma level (plasma cytokines; [2]): −
- IL-4 plasma level (plasma cytokines; [2]): −
- IL-6 plasma level (plasma cytokines; [2]): −
- IL-8 plasma level (plasma cytokines; [2]): −
- IL-12p40 plasma level (plasma cytokines; [2]): +
- IL-12p70 plasma level (plasma cytokines; [2]): −
- IL-13 plasma level (plasma cytokines; [2]): −
- IL-15 plasma level (plasma cytokines; [2]): −
- IL-17A plasma level (plasma cytokines; [2]): −
- IP-10 plasma level (plasma cytokines; [2]): −
- MIP1a plasma level (plasma cytokines; [2]): −
- RANTES plasma level (plasma cytokines; [2]): +
- VEGF plasma level (plasma cytokines; [2]): −
- levels of cytokines including EGF, IFN α2, IL-1β, IL-12p40 (plasma cytokines; [3]): increase
- levels of several cytokines including VEGF, GM-CSF, INF-γ, IL-2, IL-12p70, IL-13, IL-15, IL-17a, IL-1RA, IL-1α, IL-2, ILl-4, IL-6, IL-8, il-10, MIP1-α. IL-1 TNF-α (plasma cytokines; [3]): reduction
- EC50 [1]: 14.9 µM
